Data: publication PMC7533037, “Purification, structural analysis, and stability of antioxidant peptides from purple wheat bran” (BMC Chemistry, 2020)
Residues, ends and D or L forms follow the SMILES beside them. No end group written: not given here.

Key:
[1] = tested on: pepsin; test: In vitro digestion stability, pepsin; format: in vitro ADME; details: simulated gastrointestinal digestion, compared with before digestion, peptide 0.5 mg/mL (TEAC), 1.0 mg/mL (superoxide), n = 3
Description: (§1) According to the main components of human gastrointestinal digestive juice and digestive environment, a human gastrointestinal digestion simulation system was established to study the antioxidant activity changes of peptides after digestion by human gastrointestinal digestion simulation system. The method was according to the previously reported by Jang et al..
(§2) Peptides 2 and 4 synthesized in this study might be better antioxidants than the other peptides because of their high resistance to superoxide anion radical and high TEACs (Fig. 5) (P < 0.05). The peptide concentrations for the determination of superoxide anion radical scavenging activity and TEAC in the stability study (3.5 and 3.6) were chosen to be 1.0 and 0.5 mg/mL, respectively, according to the experimental results.

[2] = tested on: trypsin; test: In vitro digestion stability, trypsin; format: in vitro ADME; details: simulated gastrointestinal digestion, compared with before digestion, peptide 0.5 mg/mL (TEAC), 1.0 mg/mL (superoxide), n = 3
Description: as §1, §2

[3] = Temperature stability of antioxidant activity; format: physicochemical; details: compared with the three other peptides; read-out superoxide scavenging and TEAC
Experimental: The antioxidant activities of purple wheat bran antioxidant peptides at different passivation temperatures for 60 min were studied. The detection method of antioxidant activities was shown in 2.4. Before the antioxidant activities were measured, the samples allowed to cool to room temperature (25 °C) and pH was adjusted to 7.0.
as §2

[4] = tested on: chymotrypsin; test: In vitro digestion stability, chymotrypsin; format: in vitro ADME; details: simulated gastrointestinal digestion, individually or continuously, compared with before digestion, peptide 0.5 mg/mL (TEAC), 1.0 mg/mL (superoxide), n = 3
Description: as §1, §2

[5] = Trolox equivalent antioxidant capacity (TEAC), ABTS radical scavenging; format: biochemical; details: synthesized peptides; PBS pH 7.4, 30 °C, 30 min, 734 nm; n = 3
Experimental: The experiment referred to methods of Costa and Xing and made appropriate modifications. This method used Trolox as the standard antioxidant and all reagents were prepared in 50 mmol/L phosphate buffered solution (pH 7.4). The specific operation was as follows: PBS (50 µL) solution (blank group), different concentrations of Trolox solution (standard control group) and sample solution to be tested (sample group) were added to a transparent 96-well microplate, and then 150 µL ABTS^+· was quickly added. The solution was shaken at 30 °C for 30 min and its absorbance was measured at 734 nm using a microplate scanning spectrophotometer (Multiskan FC, Thermo Fisher Scientific (Shanghai), China). ABTS radical scavenging activity was calculated as ABTS+·clearancerate%=1-ASample/ABlank×100

[6] = Superoxide anion radical scavenging activity assay (pyrogallol autoxidation method); format: biochemical; details: synthesized peptides, Tris-HCl pH 8.3, 320 nm, n = 3
Experimental: Superoxide anion radical scavenging activity assay was measured using the pyrogallol autoxidation method with some modifications. Mix 1.6 mL of sample with an equal volume of 50 mM Tris–HCl buffer (pH 8.3). The mixture was incubated in a bath for 20 min, then 0.8 mL of 1.5 mM pyrogallic acid was added. Absorbance of the mixture was measured at 320 nm every 30 s for 5 min. For blank, 1.6 mL of Tris–HCl buffer was used instead of sample. Ascorbic acid and GSH were used as positive controls. Superoxide anion radical scavenging activity was calculated as: O2-clearancerate%=1-ΔODS/ΔODb×100%, Where,ΔODSandΔODb represented slope of absorbance line for sample and slope of absorbance line for blank.

| Compound | TEAC and superoxide anion radical scavenging activity after digestion by pepsin [1] | TEAC and superoxide anion radical scavenging activity after digestion by trypsin [2] | temperature stability (overall) [3] | TEAC and superoxide anion radical scavenging activity after digestion by chymotrypsin [4] | IC50, TEAC (ABTS radical scavenging) [5] [µg/mL] | IC50, superoxide anion radical scavenging [6] [µg/mL] |
| --- | --- | --- | --- | --- | --- | --- |
| N[C@@H](CO)C(=O)N[C@@H](CO)C(=O)N[C@@H](CS)C(=O)O [peptide 4, Ser-Ser-Cys] (H-Ser-Ser-Cys-OH) | remained at the same levels | remained at the same levels | better temperature stability | remained at the same levels |  |  |
| N=C(N)NCCC[C@H](N)C(=O)N[C@@H](CC(N)=O)C(=O)N[C@@H](Cc1ccccc1)C(=O)O [peptide 3, Arg-Asn-Phe] (H-Arg-Asn-Phe-OH) | insignificant changes | significantly declined |  | significant reduction |  |  |
| C[C@H](NC(=O)[C@@H](N)CCC(N)=O)C(=O)N[C@@H](CS)C(=O)O [peptide 2, Gln-Ala-Cys] (H-Gln-Ala-Cys-OH) | remained at the same levels | remained at the same levels | better temperature stability | remained at the same levels |  |  |
| CGFPGHC (cysteine pairing not given here) [peptide 1, antioxidant peptide identified in F4-4 of purple wheat bran protein hydrolysate, synthesized by Fmoc solid phase method] | insignificant changes |  |  | significant reduction | 763 | 2898 |
| N[C@@H](Cc1c[nH]c2ccccc12)C(=O)N[C@@H](Cc1ccccc1)C(=O)O [peptide 5, Trp-Phe] (H-Trp-Phe-OH) | insignificant changes |  |  | significant reduction |  |  |
